In the CheMixHub ionic liquid set:

Experiment: xn = mol fraction of the nth substance listed

CCCC[N+](CCCC)(CCCC)CCCC.[Cl-] + C[C@@H](O)[C@H](N)C(=O)O
101 kPa
Conditions | electrical conductivity, x2 = 0.09091 [S/m] | electrical conductivity, x2 = 0.1 [S/m] | electrical conductivity, x2 = 0.1111 [S/m] | viscosity, x2 = 0.09091 [mPa·s] | viscosity, x2 = 0.1 [mPa·s] | viscosity, x2 = 0.1111 [mPa·s]
303.15 K | 0.0086 | 0.0049 | 0.0067 | 223 | 179 | 1020
313.15 K | 0.0157 | 0.0117 | 0.0135 | 131 | 104 | 630
323.15 K | 0.0279 | 0.0199 | 0.0236 | 73 | 68 | 322
333.15 K | 0.039 | 0.0311 | 0.036 | 46 | 43 | 186
343.15 K | 0.045 | 0.0402 | – | 34 | 31 | 109
353.15 K | 0.0583 | 0.0516 | 0.0569 | 24 | 24 | 63

CCCC[n+]1ccn(C)c1.[Br-] + C[C@@H](O)[C@H](N)C(=O)O + O
viscosity [mPa·s], 101.3 kPa
Conditions | 293.15 K | 298.15 K | 303.15 K | 308.15 K | 313.15 K
x2 = 0, x1 = 0.0007203 | – | – | – | – | 0.674
x2 = 0.0003632, x1 = 0.00072 | 1.028 | 0.918 | 0.825 | 0.748 | 0.682
x2 = 0.0003679, x1 = 0.001439 | 1.053 | 0.943 | 0.85 | 0.773 | 0.707
x2 = 0.0007261, x1 = 0.0007198 | 1.034 | 0.923 | 0.829 | 0.751 | 0.685
x2 = 0.0007318, x1 = 0.001438 | 1.059 | 0.948 | 0.854 | 0.776 | 0.71
x2 = 0.001087, x1 = 0.0007195 | 1.038 | 0.927 | 0.834 | 0.755 | 0.689
x2 = 0.001097, x1 = 0.001438 | 1.064 | 0.952 | 0.859 | 0.78 | 0.714
x2 = 0.001451, x1 = 0.0007192 | 1.043 | 0.932 | 0.838 | 0.76 | 0.693
x2 = 0.001461, x1 = 0.001437 | 1.07 | 0.957 | 0.863 | 0.785 | 0.718
x2 = 0.001813, x1 = 0.000719 | 1.048 | 0.936 | 0.843 | 0.764 | 0.698
x2 = 0.001828, x1 = 0.001437 | 1.075 | 0.961 | 0.868 | 0.789 | 0.723
x2 = 0.002175, x1 = 0.0007187 | 1.053 | 0.941 | 0.847 | 0.769 | 0.702
x2 = 0.002191, x1 = 0.001436 | 1.079 | 0.966 | 0.872 | 0.794 | 0.727
x2 = 0.002537, x1 = 0.0007185 | 1.058 | 0.946 | 0.852 | 0.773 | 0.707
x2 = 0.002557, x1 = 0.001436 | 1.085 | 0.97 | 0.877 | 0.798 | 0.732

CCCCCCCCCCCC[N+](C)(C)Cc1ccccc1.[Cl-] + C[C@H](N)C(=O)O + O
electrical conductivity [S/m], 101 kPa
Conditions | 293.15 K | 298.15 K | 303.15 K | 308.15 K
x2 = 0.0009017, x1 = 0.000273 | 0.0801 | 0.0901 | 0.101 | 0.112
x2 = 0.0009017, x1 = 0.0002923 | 0.0832 | 0.0935 | 0.104 | 0.117
x2 = 0.0009017, x1 = 0.00031 | 0.0859 | 0.0967 | 0.108 | 0.121
x2 = 0.0009017, x1 = 0.0003245 | 0.0882 | 0.0994 | 0.111 | 0.124
x2 = 0.0009018, x1 = 0.0001745 | 0.0636 | 0.0709 | 0.0786 | 0.0867
x2 = 0.0009018, x1 = 0.0002014 | 0.0686 | 0.0767 | 0.0852 | 0.0943
x2 = 0.0009018, x1 = 0.0002282 | 0.0731 | 0.0819 | 0.0911 | 0.101
x2 = 0.0009018, x1 = 0.0002515 | 0.0769 | 0.0862 | 0.096 | 0.107
x2 = 0.0009019, x1 = 5.732e-05 | 0.0227 | 0.0255 | 0.0283 | 0.0312
x2 = 0.0009019, x1 = 7.956e-05 | 0.0312 | 0.0349 | 0.0388 | 0.0427
x2 = 0.0009019, x1 = 0.0001004 | 0.0389 | 0.0437 | 0.0484 | 0.0533
x2 = 0.0009019, x1 = 0.0001231 | 0.0474 | 0.053 | 0.0588 | 0.0647
x2 = 0.0009019, x1 = 0.0001486 | 0.0565 | 0.0633 | 0.0701 | 0.077
x2 = 0.001773, x1 = 8.528e-05 | 0.033 | 0.037 | 0.041 | 0.0452
x2 = 0.001773, x1 = 0.0001054 | 0.0404 | 0.0453 | 0.0502 | 0.0553
x2 = 0.001773, x1 = 0.0001263 | 0.0481 | 0.0538 | 0.0597 | 0.0658
x2 = 0.001773, x1 = 0.00015 | 0.0564 | 0.063 | 0.0698 | 0.077
x2 = 0.001773, x1 = 0.000176 | 0.063 | 0.0702 | 0.0778 | 0.086
x2 = 0.001773, x1 = 0.0002016 | 0.0678 | 0.0756 | 0.084 | 0.0932
x2 = 0.001773, x1 = 0.0002266 | 0.0719 | 0.0805 | 0.0896 | 0.0995
x2 = 0.001773, x1 = 0.0002493 | 0.0756 | 0.0847 | 0.0946 | 0.105
x2 = 0.001773, x1 = 0.0002699 | 0.0789 | 0.0885 | 0.099 | –
x2 = 0.001773, x1 = 0.0002888 | 0.082 | 0.0924 | 0.103 | –
x2 = 0.001773, x1 = 0.0003053 | 0.0849 | 0.0956 | 0.107 | –
x2 = 0.001773, x1 = 0.0003178 | 0.0873 | 0.0979 | 0.11 | –
x2 = 0.001774, x1 = 6.278e-05 | 0.0246 | 0.0276 | 0.0306 | 0.0337

Cc1ccc(S(=O)(=O)O)cc1 + C[N+](C)(C)Cc1ccccc1.[Cl-]
101 kPa, x2 = 0.3
Conditions | electrical conductivity [S/m] | viscosity [mPa·s]
292.97 K | – | 15200
298 K | – | 12900
302.95 K | – | 8733
307.99 K | – | 5078
308.2 K | 0.05721 | –
313.02 K | – | 2889
313.22 K | 0.08258 | –
317.95 K | – | 1701
318.31 K | 0.1275 | –
323.05 K | – | 1092
323.16 K | 0.187 | –
328.06 K | – | 791
328.17 K | 0.2562 | –
332.98 K | – | 452
333.27 K | 0.345 | –

O=C(O)C(=O)O + C[N+](C)(C)Cc1ccccc1.[Cl-]
101 kPa, x2 = 0.5
Conditions | electrical conductivity [S/m] | viscosity [mPa·s]
293.14 K | 0.2104 | –
293.17 K | – | 1971
298.07 K | 0.3284 | –
298.09 K | – | 1362
303.08 K | 0.4611 | –
303.11 K | – | 714
308.09 K | 0.6182 | –
308.12 K | – | 452
312.95 K | – | 266.7
313.1 K | 0.7996 | –
317.96 K | – | 197.3
318.18 K | 1.025 | –
323.06 K | – | 166.6
323.19 K | 1.246 | –
327.98 K | – | 58.6
328.11 K | 1.505 | –
332.99 K | – | 27.7
333.03 K | 1.774 | –

CCCC[n+]1ccn(C)c1.[Br-] + C[NH2+]CCC=C1c2ccccc2CCc2ccccc21.[Cl-] + O
viscosity [mPa·s], 100 kPa
Conditions | 288.15 K | 298.15 K | 308.15 K | 318.15 K
x2 = 0, x1 = 0.0001802 | 1.149 | 0.916 | 0.751 | 0.634
x2 = 0, x1 = 0.0007203 | 1.153 | – | – | 0.64
x2 = 0, x1 = 0.00126 | 1.159 | 0.93 | 0.763 | 0.646
